How the values were obtained:
Format in all cases: functional, cell-based
DU-145 = assay: Cytotoxicity against human DU145 cells assessed as reduction in cell viability incubated for 72 hrs by CCK8 assay; conditions: DU-145, 72 h
SW1990 = assay: Cytotoxicity against human SW1990 cells assessed as reduction in cell viability incubated for 72 hrs by CCK8 assay; conditions: SW1990, 72 h
Huh-7 = assay: Cytotoxicity against human HuH7 cells assessed as reduction in cell viability incubated for 72 hrs by CCK8 assay; conditions: Huh-7, 72 h
PANC-1 = assay: Cytotoxicity against human PANC1 cells assessed as reduction in cell viability incubated for 72 hrs by CCK8 assay; conditions: PANC-1, 72 h

| SMILES | IC50 (DU-145) [µM] | IC50 (SW1990) [µM] | IC50 (Huh-7) [µM] | IC50 (PANC-1) [µM] |
| --- | --- | --- | --- | --- |
| C=C1[C@@H](OC(=O)C(C)(C)[C@H](C)O)C[C@H]2C[C@@H]1[C@]21C[C@]2(C[C@H](C)C(=O)O2)O[C@H]1OCC1=C(/C=C/CCCCC)[C@@H](O)[C@@H]2O[C@@]23C[C@H](O)C(C)(C)O[C@@H]13 | 13.4 | 8.2 | 9.6 | 7.5 |
| C=C1[C@@H](OC(=O)C(C)(C)[C@H](C)O)C[C@H]2C[C@@H]1[C@]21C[C@@]2(C[C@H](C)C(=O)O2)O[C@H]1OCC1=C(/C=C/CCCCC)[C@@H](O)[C@@H]2O[C@@]23C[C@H](O)C(C)(C)O[C@@H]13 | 11 | 4.9 | 4.9 | 7.9 |
| C=C1[C@@H](OC(=O)C(C)(C)[C@H](C)O)C[C@H]2C[C@@H]1[C@]21C[C@]2(C[C@H](C)C(=O)O2)O[C@@H]1OCC1=C(/C=C/CCCCC)[C@@H](O)[C@@H]2O[C@@]23C[C@H](O)C(C)(C)O[C@@H]13 | 13.5 | 9.6 | 11.2 | 10.2 |
| C=C1[C@@H](OC(=O)C(C)(C)[C@H](C)O)C[C@H]2C[C@@H]1[C@]21C[C@@]2(C[C@H](C)C(=O)O2)O[C@@H]1OCC1=C(/C=C/CCCCC)[C@@H](O)[C@@H]2O[C@@]23C[C@H](O)C(C)(C)O[C@@H]13 | 17.1 | 7.3 | 8.4 | 9.7 |
| CCCCC/C=C/C1=C(CO)[C@@H]2OC(C)(C)[C@@H](O)C[C@@]23O[C@H]3[C@@H]1O | > 50 | > 50 | > 50 | > 50 |

Source: ChEMBL document CHEMBL4414646, “Eutypellacytosporins A-D, Meroterpenoids from the Arctic Fungus Eutypella sp. D-1” (J Nat Prod, 2019)
